We go through 28 compounds from patent publication US20250129067A1 (Progentos Therapeutics, Inc., priority 2021, published 2025).

In one series the target is PDGFRα (Homo sapiens (Human), UniProt P16234). In words: PDGFRα kinase enzyme assay (Promega PDGFRα Kinase Enzyme System, ADP-Glo). It counts as biochemical. The note with it: 11-point dose response, 10,000 nM to 0.169 nM; 150 uM ATP; BLQ = below limit of quantitation; read-out: IC50 Values on PDGFRα Kinase Inhibition, IC50. On the procedure: The PDGFRα enzyme assays were conducted per the manufacturer's directions (Promega PDGFRα Kinase Enzyme System and ADP Glo Assay Cat #V8011). […] 20 ng of purified PDGFRα protein was added to the test article. […] ADP-Glo was added to halt the kinase reaction and deplete the remaining ATP. Kinase detection reagent, containing luciferase and luciferin, was used to convert the ADP signal into luminescence. Luminescence was measured using a Molecular Devices Spectramax ID5 and compared to a standard curve to determine kinase activity. IC50s were calculated using Prism 9, Graphpad software.
PDGFRα, sequence (P16234 24-1089): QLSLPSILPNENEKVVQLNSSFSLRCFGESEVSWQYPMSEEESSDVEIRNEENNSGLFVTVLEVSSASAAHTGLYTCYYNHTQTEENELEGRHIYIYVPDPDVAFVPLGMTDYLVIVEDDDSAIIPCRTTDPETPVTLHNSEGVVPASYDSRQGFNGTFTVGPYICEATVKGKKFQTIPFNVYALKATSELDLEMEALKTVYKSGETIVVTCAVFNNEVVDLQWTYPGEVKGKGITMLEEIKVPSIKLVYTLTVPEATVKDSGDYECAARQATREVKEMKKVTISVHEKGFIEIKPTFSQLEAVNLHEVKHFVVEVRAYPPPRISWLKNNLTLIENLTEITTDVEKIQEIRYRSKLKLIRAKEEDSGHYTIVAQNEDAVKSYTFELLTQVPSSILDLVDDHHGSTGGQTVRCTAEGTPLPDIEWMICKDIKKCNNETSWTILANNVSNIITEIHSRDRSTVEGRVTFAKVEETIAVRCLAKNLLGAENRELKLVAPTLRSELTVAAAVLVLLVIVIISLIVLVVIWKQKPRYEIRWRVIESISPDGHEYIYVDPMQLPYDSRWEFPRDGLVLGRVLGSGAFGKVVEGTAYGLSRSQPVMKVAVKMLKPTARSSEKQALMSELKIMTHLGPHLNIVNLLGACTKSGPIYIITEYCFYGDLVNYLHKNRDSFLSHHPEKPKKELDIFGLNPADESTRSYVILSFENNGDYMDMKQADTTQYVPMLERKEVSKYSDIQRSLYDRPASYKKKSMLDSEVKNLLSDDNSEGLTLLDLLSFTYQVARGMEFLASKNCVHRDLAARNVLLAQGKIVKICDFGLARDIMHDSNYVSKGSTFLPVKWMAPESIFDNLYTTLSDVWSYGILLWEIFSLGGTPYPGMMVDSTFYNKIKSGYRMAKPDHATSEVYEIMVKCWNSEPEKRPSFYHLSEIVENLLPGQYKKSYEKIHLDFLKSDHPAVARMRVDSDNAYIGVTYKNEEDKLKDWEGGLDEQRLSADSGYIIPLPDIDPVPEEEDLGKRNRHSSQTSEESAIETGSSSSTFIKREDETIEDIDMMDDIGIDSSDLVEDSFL
For orientation: In ADP-Glo the light output rises with the ADP produced.

Series [1] has as its system Oligodendrocyte progenitor cells (OPCs). The experiment in a line: In vitro OPC differentiation assay, GPR17 expression (immunocytochemistry). The following applies: 72 hours, fold change over vehicle; for GPR17 Fold Induction (Over Vehicle; 3 μM): 3 μM (10× concentration, final 0.3 μM).

A value given as a limit tells only on which side of the number the result lay.

In the case of `C[C@H](c1ccc(Cl)cc1)N(C)C(=O)N1CCN(c2cnn3cc(-c4cnn(C)c4)ccc23)CC1` [Compound 276, (R)—N-(1-(4-chlorophenyl)ethyl)-N-methyl-4-(6-(1-methyl-1H-pyrazol-4-yl)pyrazolo[1,5-a]pyridin-3-yl)piperazine-1-carboxamide], the half-inhibitory concentration (IC50) at PDGFRα worked out at 2700 nM. The “GPR17 Fold Induction (Over Vehicle; 3 μM)” value in series [1] worked out at 2.11.

Consider `Cn1cc(-c2ccc3c(N4CCN(C(=O)OCc5ccccc5C#N)CC4)cnn3c2)cn1` [Compound 281, 2-cyanobenzyl 4-(6-(1-methyl-1H-pyrazol-4-yl)pyrazolo[1,5-a]pyridin-3-yl)piperazine-1-carboxylate], for which, on PDGFRα, the IC50 was 303 nM. Besides, the “GPR17 Fold Induction (Over Vehicle; 3 μM)” value in series [1] came out at 11.42. The like results for `Cn1cc(-c2ccc3c(N4CCN(c5ncc(CC(O)c6ccccc6)cn5)CC4)cnn3c2)cn1` (stereo not drawn) [Compound 164, 2-(2-(4-(6-(1-methyl-1H-pyrazol-4-yl)pyrazolo[1,5-a]pyridin-3-yl)piperazin-1-yl)pyrimidin-5-yl)-1-phenylethan-1-ol] were, in that order, 784 nM and 5.94. `Cn1cc(-c2ccc3c(N4CCN(c5ncc(C(O)C6CCCCO6)cn5)CC4)cnn3c2)cn1` (stereo not drawn) [Compound 194, (2-(4-(6-(1-methyl-1H-pyrazol-4-yl)pyrazolo[1,5-a]pyridin-3-yl)piperazin-1-yl)pyrimidin-5-yl)(tetrahydro-2H-pyran-2-yl)methanol]: on PDGFRα, the IC50 stood at 195 nM. In addition, the “GPR17 Fold Induction (Over Vehicle; 3 μM)” value in series [1] is given as 8.67.

Regarding `COc1ccc(-c2ccc3c(N4CCN(C(=O)OC(C)(C)C)CC4)cnn3c2)cc1` [Compound 210, tert-butyl 4-(6-(4-methoxyphenyl)pyrazolo[1,5-a]pyridin-3-yl)piperazine-1-carboxylate], at PDGFRα, the half-maximal inhibitory concentration (IC50) came out at 7480 nM. Besides, the “GPR17 Fold Induction (Over Vehicle; 3 μM)” value in series [1] is on record as 4.38. The like results for `Cn1cc(-c2ccc3c(C4CCN(c5ncc(Cc6ccccc6)cn5)C4)cnn3c2)cn1` (stereo not drawn) [Compound 75, 3-[1-(5-benzylpyrimidin-2-yl)pyrrolidin-3-yl]-6-(1-methyl-1H-pyrazol-4-yl)pyrazolo[1,5-a]pyridine] were, in that order, 6590 nM and 3.34.

As for `Cn1cc(-c2ccc3c(NCC(=O)Nc4ncc(Cc5ccccc5)cn4)cnn3c2)cn1` [Compound 244, N-(5-benzylpyrimidin-2-yl)-2-((6-(1-methyl-1H-pyrazol-4-yl)pyrazolo[1,5-a]pyridin-3-yl)amino) acetamide], the 50% inhibitory concentration (IC50) on PDGFRα was determined as 2140 nM. In addition, the “GPR17 Fold Induction (Over Vehicle; 3 μM)” value in series [1] worked out at 4.76.

For `CN(CCN(C)c1cnc2cc(-c3cccnc3)ncn12)C(=O)OC(C)(C)C` [Compound 99, tert-butyl methyl(2-(methyl(7-(pyridin-3-yl)imidazo[1,2-c]pyrimidin-3-yl)amino)ethyl)carbamate], the IC50 on PDGFRα was greater than 10000 nM. For the same compound, the “GPR17 Fold Induction (Over Vehicle; 3 μM)” value in series [1] worked out at 0.62.

On to `CC(C)(C)OC(=O)N1CCN(c2cnn3cc(-c4cccc(F)c4)ccc23)CC1` [Compound 208, tert-butyl 4-(6-(3-fluorophenyl)pyrazolo[1,5-a]pyridin-3-yl)piperazine-1-carboxylate], for which the half-maximal inhibitory concentration (IC50) at PDGFRα is greater than 10000 nM. The “GPR17 Fold Induction (Over Vehicle; 3 μM)” value in series [1] came out at 1.22. The like results for `CN(CCN(C)c1cnc2nc(-c3cccnc3)ccn12)C(=O)OC(C)(C)C` [Compound 112] were, in that order, greater than 10000 nM and 0.91.

Consider `Cc1nn(C)cc1-c1ccc2c(N3CCN(C(=O)OC(C)(C)C)CC3)cnn2c1` [Compound 220, tert-butyl 4-(6-(1,3-dimethyl-1H-pyrazol-4-yl)pyrazolo[1,5-a]pyridin-3-yl)piperazine-1-carboxylate], for which the IC50 at PDGFRα was found to be 528 nM. In addition, the “GPR17 Fold Induction (Over Vehicle; 3 μM)” value in series [1] worked out at 5.20. For `CC(C)(C)OC(=O)N1CCN(c2cnn3cc(-c4cn(CCO)cn4)ccc23)CC1` [Compound 229, tert-butyl 4-(6-(1-(2-hydroxyethyl)-1H-imidazol-4-yl)pyrazolo[1,5-a]pyridin-3-yl)piperazine-1-carboxylate], the IC50 at PDGFRα amounted to 363 nM. Further, the “GPR17 Fold Induction (Over Vehicle; 3 μM)” value in series [1] is 10.61. The like results for `CC(C)(C)OC(=O)N1CCN(c2cnn3cc(-c4cnn5c4CCCC5)ccc23)CC1` [Compound 236, tert-butyl 4-(4,5,6,7-tetrahydro-[3,6′-bipyrazolo[1,5-a]pyridin]-3′-yl)piperazine-1-carboxylate] were, in that order, 696 nM and 6.03. `Cn1cc(-c2ccc3c(N4CCN(c5ncc(Cc6ccsc6)cn5)CC4)cnn3c2)cn1` [Compound 302, 6-(1-methyl-1H-pyrazol-4-yl)-3-(4-(5-(thiophen-3-ylmethyl)pyrimidin-2-yl)piperazin-1-yl)pyrazolo[1,5-a]pyridine]: on PDGFRα, the IC50 was 137 nM. In addition, the “GPR17 Fold Induction (Over Vehicle; 3 μM)” value in series [1] was determined as 8.86.

Turning to `Cn1cc(-c2ccc3c(N4CCN(c5ncc(CC6CCCOC6)cn5)CC4)cnn3c2)cn1` (stereo not drawn) [Compound 185, 6-(1-methyl-1H-pyrazol-4-yl)-3-(4-(5-((tetrahydro-2H-pyran-3-yl)methyl)pyrimidin-2-yl)piperazin-1-yl)pyrazolo[1,5-a]pyridine], on PDGFRα, the IC50 is 510 nM. Moreover, the “GPR17 Fold Induction (Over Vehicle; 3 μM)” value in series [1] came out at 12.67.

Regarding `CN(CCCN(C)c1cnn2cc(-c3cnn(C)c3)ccc12)c1ncc(Cc2ccccc2)cn1` [Compound 130], the “GPR17 Fold Induction (Over Vehicle; 3 μM)” value in series [1] is 1.57. For `Cn1cc(-c2ccc3c(N4CCN(c5cnc(Cc6ccccc6)cn5)CC4)cnn3c2)cn1` [Compound 303, 3-(4-(5-benzylpyrazin-2-yl)piperazin-1-yl)-6-(1-methyl-1H-pyrazol-4-yl)pyrazolo[1,5-a]pyridine], the IC50 at PDGFRα is greater than 10000 nM. The “GPR17 Fold Induction (Over Vehicle; 3 μM)” value in series [1] was determined as 2.52. For `COCCn1cc(-c2cc3ncc(N4CCN(C(=O)OC(C)(C)C)CC4)n3cn2)cn1` [Compound 88, tert-butyl 4-(7-(1-(2-methoxyethyl)-1H-pyrazol-4-yl)imidazo[1,2-c]pyrimidin-3-yl)piperazine-1-carboxylate], in that order: 1600 nM and 2.90. For `Cc1c(-c2ccc3c(N4CCN(C(=O)OC(C)(C)C)CC4)cnn3c2)cnn1C` [Compound 221, tert-butyl 4-(6-(1,5-dimethyl-1H-pyrazol-4-yl)pyrazolo[1,5-a]pyridin-3-yl)piperazine-1-carboxylate], in that order: 506 nM and 6.61.

With `Cn1cc(-c2ccc3c(N4CCN(c5ncc(Cc6nnco6)cn5)CC4)cnn3c2)cn1` [Compound 180, 2-((2-(4-(6-(1-methyl-1H-pyrazol-4-yl)pyrazolo[1,5-a]pyridin-3-yl)piperazin-1-yl)pyrimidin-5-yl)methyl)-1,3,4-oxadiazole], the concentration for half-maximal inhibition (IC50) at PDGFRα came to 4330 nM. The “GPR17 Fold Induction (Over Vehicle; 3 μM)” value in series [1] worked out at 4.05. For the compound `CC(C)OC(=O)N1CCN(c2cnn3cc(-c4cnn(C)c4)ccc23)CC1` [Compound 31, isopropyl 4-[6-(1-methyl-1H-pyrazol-4-yl)pyrazolo[1,5-a]pyridin-3-yl]piperazine-1-carboxylate], at PDGFRα, the IC50 is 244 nM. The “GPR17 Fold Induction (Over Vehicle; 3 μM)” value in series [1] came out at 9.76. In series [1] (5 μM (10× concentration, final 0.5 μM)), the “GPR17 Fold Induction (Over Vehicle; 5 μM)” value was found to be 6.22. For the compound `COc1ccccc1-c1ccc2c(N3CCN(C(=O)OC(C)(C)C)CC3)cnn2c1` [Compound 212, tert-butyl 4-(6-(2-methoxyphenyl)pyrazolo[1,5-a]pyridin-3-yl)piperazine-1-carboxylate], the IC50 at PDGFRα was found to be 3670 nM. In addition, the “GPR17 Fold Induction (Over Vehicle; 3 μM)” value in series [1] worked out at 2.51.

`COCCn1cc(-c2ccn3c(N(C)CCN(C)C(=O)OC(C)(C)C)cnc3n2)cn1` [Compound 109, tert-butyl (2-((7-(1-(2-methoxyethyl)-1H-pyrazol-4-yl)imidazo[1,2-a]pyrimidin-3-yl)(methyl)amino)ethyl)(methyl)carbamate]: the IC50 on PDGFRα is greater than 10000 nM. The “GPR17 Fold Induction (Over Vehicle; 3 μM)” value in series [1] worked out at 1.38. As for `Cn1cc(-c2ccn3c(N4CCN(C(=O)OC(C)(C)C)CC4)cnc3n2)cn1` [Compound 87], the “GPR17 Fold Induction (Over Vehicle; 3 μM)” value in series [1] is 1.43. As for `Cn1cc(-c2ccc3c(N4CCN(C(=O)OCc5ccc(Cl)cc5)CC4)cnn3c2)cn1` [Compound 198, 4-chlorobenzyl 4-(6-(1-methyl-1H-pyrazol-4-yl)pyrazolo[1,5-a]pyridin-3-yl)piperazine-1-carboxylate], in series [1], the “GPR17 Fold Induction (Over Vehicle; 3 μM)” value came out at 9.23. Still for that read-out and setting: then `Cn1cc(-c2ccc3c(N4CCN(Cc5ccc(Cl)cc5)CC4)cnn3c2)cn1` [Compound 202, 3-(4-(4-chlorobenzyl)piperazin-1-yl)-6-(1-methyl-1H-pyrazol-4-yl)pyrazolo[1,5-a]pyridine], with 1.94.

For the compound `Cn1cc(-c2ccn3ncc(N4CCN(c5ncc(Cc6ccccc6)cn5)CC4)c3c2)cn1` [Compound 4, 3-[4-(5-benzylpyrimidin-2-yl)piperazin-1-yl]-5-(1-methyl-1H-pyrazol-4-yl)pyrazolo[1,5a]pyridine], at PDGFRα, the 50% inhibitory concentration (IC50) was greater than 10000 nM. Take `Cn1cc(-c2ccc3c(CCc4ncc(Cc5ccccc5)cn4)cnn3c2)cn1` [Compound 305, 3-(2-(5-benzylpyrimidin-2-yl)ethyl)-6-(1-methyl-1H-pyrazol-4-yl)pyrazolo[1,5-a]pyridine]: the “GPR17 Fold Induction (Over Vehicle; 3 μM)” value in series [1] was determined as 1.15.

As usually defined, the IC50 is the concentration that inhibits the measured activity by half.
